Columns and labels:
[1] = target: HA H1 A/California/07/09 (Influenza A virus (A/California/07/2009(H1N1)), UniProt C3W5X2); experiment: biochemical; settings: Competition binding (AlphaLISA), pIC50 H1 A/California/07/09
[2] = target: HA H1 A/New Caledonia/20/99 (Influenza A virus (A/New Caledonia/20/1999(H1N1)), UniProt Q6WG00); experiment: biochemical; settings: Competition binding (AlphaLISA), pIC50 H1 A/New Caledonia/20/99
[3] = target: HA H5 A/Vietnam/1203/04 (Influenza A virus (A/Vietnam/1203/2004(H5N1)), UniProt Q5EP31); experiment: biochemical; settings: Competition binding (AlphaLISA), pIC50 H5 A/Vietnam/1203/04
[4] = test system: H1N1 A/California/07/09; experiment: microbe, parasite or virus in culture; type: cell-based, influenza A virus; settings: Influenza A virus, H1N1, MDCK, 96 h, read-out: Virus neutralization assay (VNA), pEC50 H1N1 A/California/07/09 (converted)
[5] = test system: H1N1 A/New Caledonia/20/99; experiment: microbe, parasite or virus in culture; type: cell-based, influenza A virus; settings: Influenza A virus, H1N1, MDCK, 96 h, read-out: Virus neutralization assay (VNA), pEC50 H1N1 A/New Caledonia/20/99 (converted)
[6] = test system: H5N1 A/Vietnam/1203/04; experiment: microbe, parasite or virus in culture; type: cell-based, influenza A virus; settings: Influenza A virus, H5N1, MDCK, 96 h, read-out: Virus neutralization assay (VNA), pEC50 H5N1 A/Vietnam/1203/04, MDCK cells, 96 h, CPE by ATPlite (converted); average of repeats
[7] = in vitro; settings: dog, Cytotoxicity (pCC50) MDCK

COCC(c1ccccc1)N1CCN(C(=O)c2cccc(-c3nc4ccc(OC)cc4s3)c2)CC1 (centres unmarked) [Example 99]
IC50 [1]: 0.251 µM | IC50 [2]: 0.158 µM | IC50 [3]: 1.26 µM | EC50 [4]: 1.58 µM | EC50 [5]: 1 µM | EC50 [6]: > 50.1 µM | CC50 [7]: > 50.1 µM

COC(=O)[C@H](c1ccccc1)N1CCN(C(=O)c2cccc(-c3nc4cc(OC)ccc4o3)c2)CC1 [Example 100]
IC50 [1]: 0.501 µM | IC50 [2]: 0.316 µM | IC50 [3]: 25.1 µM | EC50 [4]: 2 µM | EC50 [5]: 1 µM | EC50 [6]: 25.1 µM | CC50 [7]: > 50.1 µM

Cc1nnc(C(c2ccccc2)N2CCN(C(=O)c3cccc(-c4nc5ccncc5o4)c3)CC2)o1 (centres unmarked) [Example 102]
IC50 [1]: 0.2 µM | IC50 [2]: 0.251 µM | IC50 [3]: 12.6 µM | EC50 [4]: 2 µM | EC50 [5]: 1 µM | EC50 [6]: > 50.1 µM | CC50 [7]: > 50.1 µM

CNC(=O)C(c1ccccc1)N1CCN(C(=O)c2cccc(-c3nc4ccc(OC)cc4s3)c2)CC1 (centres unmarked) [Example 103]
IC50 [1]: 0.2 µM | IC50 [2]: 0.126 µM | IC50 [3]: 1 µM | EC50 [4]: 2.51 µM | EC50 [5]: 1 µM | EC50 [6]: 15.8 µM | CC50 [7]: 31.6 µM

CCCNC(=O)C(c1ccccc1)N1CCN(C(=O)c2cccc(-c3nc4ccc(OC)cc4s3)c2)CC1 (centres unmarked) [Example 104]
IC50 [1]: 0.251 µM | IC50 [2]: 0.2 µM | IC50 [3]: 2 µM | EC50 [4]: 2.51 µM | EC50 [5]: 1 µM | EC50 [6]: 10 µM | CC50 [7]: 7.94 µM

O=C(c1cccc(-c2nc3cc(C(F)(F)F)ccc3o2)c1)N1CCN(C(c2ccccc2)c2nnco2)CC1 (centres unmarked) [Example 107]
IC50 [1]: 0.398 µM | IC50 [2]: 0.251 µM | IC50 [3]: 20 µM | EC50 [4]: 3.16 µM | EC50 [5]: 1 µM | EC50 [6]: > 50.1 µM | CC50 [7]: > 50.1 µM

COc1ccc2nc(-c3cccc(C(=O)N4CCN(C(Cc5nnco5)c5ccccc5)CC4)c3)sc2c1 (centres unmarked) [Example 108]
IC50 [1]: 1.58 µM | IC50 [2]: 0.501 µM | IC50 [3]: 25.1 µM | EC50 [4]: 5.01 µM | EC50 [5]: 1 µM | EC50 [6]: > 50.1 µM | CC50 [7]: > 50.1 µM

CCc1nnc(C(c2ccccc2)N2CCN(C(=O)c3cccc(-c4nc5cc(C(F)(F)F)ccc5o4)c3)CC2)o1 (centres unmarked) [Example 109]
IC50 [1]: 0.0794 µM | IC50 [2]: 0.158 µM | IC50 [3]: 3.98 µM | EC50 [4]: 0.501 µM | EC50 [5]: 1.26 µM | EC50 [6]: 25.1 µM | CC50 [7]: 10 µM

Cc1nnc([C@@H](c2ccccc2)N2CCN(C(=O)c3cccc(-c4ccc5ccccc5n4)c3)CC2)o1 [Example 112]
IC50 [1]: 0.501 µM | IC50 [2]: 0.398 µM | IC50 [3]: 6.31 µM | EC50 [4]: 1.58 µM | EC50 [5]: 1.26 µM | EC50 [6]: > 5.01 µM | CC50 [7]: 7.94 µM

COC(=O)[C@@H](c1ccccc1)N1CCN(C(=O)c2cccc(-c3nc4cc(C(F)(F)F)ccc4o3)c2)[C@H](C(N)=O)C1 [Example 113]
IC50 [1]: 0.501 µM | IC50 [2]: 0.631 µM | IC50 [3]: 25.1 µM | EC50 [4]: 1.26 µM | EC50 [5]: 1.58 µM | EC50 [6]: > 50.1 µM | CC50 [7]: > 50.1 µM

COC(=O)C(c1ccccc1)N1CCN(C(=O)C2CCCN(c3nc4ccc(OC)cc4s3)C2)CC1 (centres unmarked) [Example 115]
IC50 [1]: 0.251 µM | IC50 [2]: 0.316 µM | IC50 [3]: 7.94 µM | EC50 [4]: 2 µM | EC50 [5]: 1.26 µM | EC50 [6]: > 50.1 µM | CC50 [7]: 3.98 µM

Cc1nc(C(c2ccccc2)N2CCN(C(=O)c3cccc(-c4nc5cc(C(F)(F)F)ccc5o4)c3)CC2)n[nH]1 (centres unmarked) [Example 116]
IC50 [1]: 0.501 µM | IC50 [2]: 0.398 µM | IC50 [3]: 5.01 µM | EC50 [4]: 1.58 µM | EC50 [5]: 1.58 µM | EC50 [6]: > 50.1 µM | CC50 [7]: 50.1 µM

COC(=O)[C@H](c1ccccc1)N1CCN(C(=O)c2cccc(-c3nc4cc(C(F)(F)F)ccc4o3)c2)[C@@H](C)C1 [Example 117]
IC50 [1]: 0.126 µM | IC50 [2]: 0.1 µM | IC50 [3]: 6.31 µM | EC50 [4]: 2.51 µM | EC50 [5]: 1.26 µM | EC50 [6]: 31.6 µM | CC50 [7]: > 50.1 µM

CNC(=O)N(Cc1ccccc1)C1CCN(C(=O)c2cccc(-c3nc4ccc(OC)cc4s3)c2)CC1 [Example 118]
IC50 [1]: 0.251 µM | IC50 [2]: 0.316 µM | IC50 [3]: 25.1 µM | EC50 [4]: 7.94 µM | EC50 [5]: 1.26 µM | EC50 [6]: 31.6 µM | CC50 [7]: 2 µM

From US11040963B2 (priority 2017, dated 2021)
